Data published in US7732178B2, “Laccase enzymes and their uses” (AB Enzymes Oy, priority 2004, dated 2010).
Several values for one entry are separate records, joined by “and”; a condition that tells them apart may be missing. Equal entries are not always repeated. Where two headings read alike, the source gives them in different places.

How the values were obtained:
[1] = target: T1, Thielavia arenaria ALKO4197 laccase TaLcc1, recombinant, SEQ ID NO: 39 (Canariomyces arenarius, UniProt F6N9E7); experiment: biochemical
T1 construct: plasmid pALK1342 (DSM 15484)
Method: (§1) The inhibition effect of different compounds on the activity of the laccases was determined as described in Example 2. except with Talcc4, with which the inhibition was analyzed using spectroscopic activity assay.

[2] = test system: Thielavia arenaria ALKO4197 laccase TaLcc4, recombinant, SEQ ID NO: 45; assay type: biochemical
Method: as §1

[3] = test system: Chaetomium thermophilum ALKO4265 laccase, purified wild type (CtL; CtLcc1); assay type: biochemical; conditions: pH 5
[4] = target: Thielavia arenaria ALKO4197 laccase, purified wild type (TaLcc; TaLcc1) (Canariomyces arenarius, UniProt F6N9E7); experiment: biochemical; conditions: pH 5
CtLcc1 = assay type: biochemical, Chaetomium thermophilum
Method: as §1

[5] = test system: wild type Thielavia (TaLcc) laccase; assay type: biochemical, Thielavia arenaria; conditions: pH 5
TaLcc1 = assay type: biochemical, Thielavia arenaria
Method: as §1

TaLcc2 = assay type: biochemical, Thielavia arenaria
Method: as §1

[6] = test system: wild type Chaetomium (CtL) laccase; assay type: biochemical, Chaetomium thermophilum; conditions: pH 5
[7] = target: T2, Chaetomium thermophilum ALKO4265 laccase CtLcc1, recombinant, SEQ ID NO: 47 (Thermochaetoides thermophila, UniProt G0S3A5); assay type: biochemical
T2 construct: plasmid pALK1304 (DSM 15075)
T2 sequence (G0S3A5 entry or part of it): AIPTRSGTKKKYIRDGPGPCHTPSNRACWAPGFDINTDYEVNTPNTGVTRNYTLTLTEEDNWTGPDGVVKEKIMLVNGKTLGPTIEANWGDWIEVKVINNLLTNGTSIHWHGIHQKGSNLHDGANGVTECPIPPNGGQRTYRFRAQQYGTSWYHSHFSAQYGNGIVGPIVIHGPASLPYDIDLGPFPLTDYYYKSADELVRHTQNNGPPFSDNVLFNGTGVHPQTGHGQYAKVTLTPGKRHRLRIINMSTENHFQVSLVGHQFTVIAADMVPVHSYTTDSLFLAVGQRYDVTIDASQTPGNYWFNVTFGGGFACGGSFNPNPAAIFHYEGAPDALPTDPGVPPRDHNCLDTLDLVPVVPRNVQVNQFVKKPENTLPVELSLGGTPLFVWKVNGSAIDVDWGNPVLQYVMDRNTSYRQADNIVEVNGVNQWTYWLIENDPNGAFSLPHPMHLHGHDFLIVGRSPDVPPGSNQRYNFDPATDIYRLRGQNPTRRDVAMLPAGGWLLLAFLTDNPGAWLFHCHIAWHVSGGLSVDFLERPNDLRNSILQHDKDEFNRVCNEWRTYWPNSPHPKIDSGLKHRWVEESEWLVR
Method: as §1

[8] = target: T3, Thielavia arenaria ALKO4197 laccase TaLcc2, recombinant, SEQ ID NO: 41 (Canariomyces notabilis, UniProt A0AAN6TC87); assay type: biochemical
T3 construct: plasmid pALK1347 (DSM 15486)
T3 sequence (A0AAN6TC87 entry or part of it): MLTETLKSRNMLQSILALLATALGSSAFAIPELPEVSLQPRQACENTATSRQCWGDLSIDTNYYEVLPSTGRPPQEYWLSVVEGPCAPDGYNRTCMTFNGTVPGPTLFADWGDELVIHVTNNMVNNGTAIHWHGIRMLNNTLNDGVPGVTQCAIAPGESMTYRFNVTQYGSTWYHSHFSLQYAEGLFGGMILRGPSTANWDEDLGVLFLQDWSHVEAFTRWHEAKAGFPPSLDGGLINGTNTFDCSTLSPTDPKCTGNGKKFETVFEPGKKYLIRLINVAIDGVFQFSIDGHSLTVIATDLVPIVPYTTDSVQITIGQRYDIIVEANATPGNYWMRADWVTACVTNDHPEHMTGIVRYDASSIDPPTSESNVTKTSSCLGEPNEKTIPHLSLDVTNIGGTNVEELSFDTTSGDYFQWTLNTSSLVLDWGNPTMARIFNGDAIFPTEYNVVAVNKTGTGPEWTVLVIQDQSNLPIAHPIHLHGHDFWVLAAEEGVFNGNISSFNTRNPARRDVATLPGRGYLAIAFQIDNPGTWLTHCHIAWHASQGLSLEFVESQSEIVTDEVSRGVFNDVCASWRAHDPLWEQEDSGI
Method: as §1

TaLcc4 = assay type: biochemical, Thielavia arenaria; conditions: inhibitor 0.5 mM; spectrofotometric ABTS assay
[9] = target: T4, Melanocarpus albomyces laccase (MaL) (Melanocarpus albomyces, UniProt Q70KY3); experiment: Kinetic parameters of MaL; assay type: biochemical; conditions: 40 mM MES buffer, pH 6, 25° C.
T4 sequence (Q70KY3 51-609): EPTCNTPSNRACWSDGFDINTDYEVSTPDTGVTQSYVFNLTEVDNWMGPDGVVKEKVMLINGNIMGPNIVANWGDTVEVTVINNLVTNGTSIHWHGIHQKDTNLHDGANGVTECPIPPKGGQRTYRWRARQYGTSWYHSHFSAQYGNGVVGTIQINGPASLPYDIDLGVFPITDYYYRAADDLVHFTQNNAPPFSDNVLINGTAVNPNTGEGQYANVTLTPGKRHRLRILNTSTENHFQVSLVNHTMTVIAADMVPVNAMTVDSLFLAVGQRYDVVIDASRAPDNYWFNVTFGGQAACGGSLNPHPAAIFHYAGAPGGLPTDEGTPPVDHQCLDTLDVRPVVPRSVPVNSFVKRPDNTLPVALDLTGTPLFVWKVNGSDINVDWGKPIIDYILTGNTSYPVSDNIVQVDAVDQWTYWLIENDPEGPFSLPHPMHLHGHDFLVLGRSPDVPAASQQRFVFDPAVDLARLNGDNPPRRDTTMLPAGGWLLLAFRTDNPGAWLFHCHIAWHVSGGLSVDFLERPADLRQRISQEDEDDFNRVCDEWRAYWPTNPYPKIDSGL
Method: (§2) On syringaldazin and DMP 40 mM MES buffer, pH 6 was used. All activity assays were carried out at 25° C. Kinetic parameters were estimated by a nonlinear regression curve fit. The values were compared to those of Melanocarpus albomyces MaL, laccase.

[10] = test system: Thielavia arenaria ALKO4197 laccase TaLcc3, recombinant, SEQ ID NO: 43; experiment: Kinetic parameters of TaLcc3; assay type: biochemical; conditions: 40 mM MES buffer, pH 6, 25° C.
Method: as §2

[11] = test system: Thielavia arenaria ALKO4197 laccase TaLcc4, recombinant, SEQ ID NO: 45; experiment: Kinetic parameters of TaLcc4; assay type: biochemical; conditions: 40 mM MES buffer, pH 6, 25° C.
Method: as §2

[12] = target: T1, Thielavia arenaria ALKO4197 laccase TaLcc1, recombinant, SEQ ID NO: 39; assay type: biochemical; conditions: 40 mM MES buffer, pH 6, 25° C.
Method: as §2

[13] = Specific activity towards di-methoxy-phenol (DMP); assay type: biochemical; conditions: 25 mM MES buffer, pH 5.5
Method: (§3) Specific activities of the purified T. arenaria and C. thermophilum laccases were determined towards different laccase substrates.

[14] = Redox potential, combined Pt-AgCl/KCl microelectrode; assay type: physicochemical; conditions: combined Pt-AgCl/KCl microelectrode at pH 5.0
Method: (§4) The purified recombinant Thielavia and Chaetomium laccases were characterized in terms of pH optimum, thermal stability, and pI as described in Example 2. The molecular weight was determined by MALDI-TOF mass spectrometry on a Ultraflex™ time-of-flight instrument (BrukerDaltonics, Germany) as previously described (Palonen et al., 2003). The redox-potentials of the T1 coppers of for CtLcc, and TaLcc2 laccases were determined by photometric copper titration in 0.1 M KH2PO4 (pH 6.0) as described by Xu et al. (1996) using the redox titrant couple K3Fe(CN)6/K4Fe(CN)6. The redox potential of TaLcc1 was determined with a combined Pt—AgCl/KCl microelectrode at pH 5.0 according to Sigoillot et al (2004). The characterization results are collected to Table 14.

[15] = Specific activity towards guaiacol; assay type: biochemical; conditions: 25 mM MES buffer, pH 5.5
Method: as §3

[16] = Isoelectric focusing (pI); assay type: physicochemical; conditions: pH range 3-9
Method: Molecular weight of the T. arenaria and C. thermophilum laccases were determined on SDS-PAGE according to Laemmli (1970) The gels used in the SDS-PAGE analysis were ready-made 12% Tris HCl gels (BioRad). Protein bands were visualized by staining with Coomassie Brilliant Blue (R 350; Pharmacia) and compared with molecular weight markers (Prestained Protein Marker Broad Range #7708S; New England BioLabs, Beverly, Mass.). The molecular weight of the both laccases was approximately 80 kDa. The isoelectric point of the laccases was determined with isoelectric focusing within the pH range of 3-9 (Pharmalyte IEF, Pharmacia) on a LKB 2117 Multiphor II Electrophoresis System (LKB Pharmacia, Bromma, Sweden) according to the manufacturer's instructions.
as §4

[17] = Specific activity towards syringaldazine; assay type: biochemical; conditions: 25 mM MES buffer, pH 5.5
Method: as §3

[18] = Stain removal, tea soiling; parameters: key to Tea L* / Tea a* / Tea b*: CIE L*a*b* color coordinates from reflectance; conditions: 60 min, 40° C., pH 6; enzyme 20 nkat/g + mediator 2 mg/g (Mediator only: 0 nkat/g)
Method: (§5) Laccases CtLcc1, TaLcc2, TaLcc4 and Denilite II Base (Example 7) were tested for their ability to remove stains. The following artificially soiled test cloths were used: grass soiling (Art.164, EMPA Testmaterialen, Germany), tea soiling (Art. 167, EMPA Testmaterialen, Germany). The fabric was cut in 5.8×5.8 cm swatches. Laccase treatments were performed in LP-2 Launder Ometer as follows. About 5 g of soiled fabrics were loaded into 1.2 liter containers containing 150 ml Mc Ilvaine's citrate phosphate buffer pH 6 and the containers were temperated. Enzyme with or without the mediator (methyl syringate, DeniLite II Assist, Novozymes) was added as laccase activity units (Example 7). Enzyme was dosed 200 nkat/g and the mediator 10 mg/g on the weight of fabric, except at 40° C. dosages of 20 nkat/g and 2 mg/g were also used. The Launder Ometer was run at 40, 50 or 60° C. and pH 6 for 60 min. After that the swatches were carefully rinsed under running water and in shake flasks containing warm water and dried in the air.
(§6) The stain removal effect was evaluated by measuring the colour as reflectance values using L*a*b* color space coordinates (Example 7). The colour of the swatches was measured before and after the laccase treatment.

[19] = Specific activity towards ABTS; assay type: biochemical; conditions: 25 mM succinate buffer pH 4.5, 25° C.
Method: The activity assay was carried out in accordance with the method developed by Niku-Paavola et al. (1988). The sample was diluted with 0.025 M succinate buffer, pH 4.5. […] The activity is expressed as nano katals.
as §3

[20] = Stain removal, grass soiling; parameters: key to Grass L* / Grass a* / Grass b*: CIE L*a*b* color coordinates from reflectance; conditions: 60 min, 40° C., pH 6; enzyme 20 nkat/g + mediator 2 mg/g (Mediator only: 0 nkat/g)
Method: as §5, §6

Molecule: O=C(O)CN(CCN(CC(=O)O)CC(=O)O)CC(=O)O [EDTA]
- inhibition at 10000 µM [1]: 5%
- Inhibition (%) [2]: 2%
- Inhibition (%) [3]: 0%
- inhibition at 10000 µM [4]: 0%

Molecule: [Cl-].[Na+] [NaCl]
- Inhibition (%) CtLcc1 (CtLcc1): 0% and 10%
- Inhibition (%) TaLcc [5]: 35% and 42%
- Inhibition (%) TaLcc1 (TaLcc1): 0%
- Inhibition (%) TaLcc2 (TaLcc2): 20% and 30%
- Inhibition (%) CtL [6]: 0% and 10%

Molecule: [N-]=[N+]=[N-].[Na+] [NaN3]
- Inhibition (%) [7]: 100%
- Inhibition (%) [8]: 95%
- Inhibition (%) [2]: 95%
- Inhibition (%) CtLcc1 (CtLcc1; inhibitor 0.5 mM): 100%
- Inhibition (%) TaLcc4 (TaLcc4): 95%
- Inhibition (%) TaLcc1 (TaLcc1; inhibitor 0.5 mM): 95%
- Inhibition (%) TaLcc2 (TaLcc2; inhibitor 0.5 mM): 95%
- Inhibition (%) CtL [6]: 100%
- Inhibition (%) [3]: 100%

Molecule: COc1cc(C=NN=Cc2cc(OC)c(O)c(OC)c2)cc(OC)c1O [Syringaldazin, syringaldazin]
- kcat [9]: 4710 min⁻¹
- Km [10]: 4.3 µM
- kcat [10]: 12 min⁻¹
- Km [11]: 115 µM
- kcat [11]: 930 min⁻¹
- Km [12]: 4.3 µM
- kcat [12]: 1940 min⁻¹

B1: TaLcc1: Thielavia arenaria ALKO 4197 laccase, SEQ ID NO: 39, produced in Trichoderma reesei (protein)
chain: MKSWAAAVALMVGILSPHAAAAPPANPVQRDMLQVLEARQSGPTCNTPSNRACWTNGFDINTDYEVSTPNTGRTVAYQLTLTEKENWIGPDGVLKNVVMLVNDKIIGPTIRANWGDNIEVTVINNLKTNGTSMHWHGLRQLGNVFNDGANGVTECPIPPKGGRKTYKFRATQYGTSWYHSHFSAQYGNGVVGTIQIDGPASLPYDIDLGVFPLMDYYYRSADELVHFTQSNGAPPSDNVLFNGTARHPETGAGQWYNVTLTPGKRHRLRIINTSTDNHFQVSLVGHNMTVIATDMVPVNAFTVSSLFLAVGQRYDVTIDANSPVGNYWFNVTFGDGLCGSSNNKFPAAIFRYQGAPATLPTDQGLPVPNHMCLDNLNLTPVVTRSAPVNNFVKRPSNTLGVTLDIGGTPLFVWKVNGSAINVDWGKPILDYVMSGNTSYPVSDNIVQVDAVDQWTYWLIENDPTNPIVSLPHPMHLHGHDFLVLGRSPDELPSAGVRHIFDPAKDLPRLKGNNPVRRDVTMLPAGGWLLLAFKTDNPGAWLFHCHIAWHVSGGLSVDFLERPNDLRTQLNSNAKRADRDDFNRVCREWNAYWPTNPFPKIDSGLRHRFVEESEWMVR
modifications: Thielavia arenaria ALKO4197; (1)..(617) Deduced amino acid sequence of Thielavia arenaria ALKO4197 TaLcc1
- Specific activity on DMP [13]: 285 nkat/mg
- E^0 [14]: 560 mV
- Specific activity on guaiacol [15]: 61 nkat/mg
- pI [16]: 5.5-6.9
- Specific activity on syringaldazin [17]: 340 nkat/mg
- Tea L* [18]: 77.17
- Tea a* [18]: 4.65
- Tea b* [18]: 24.40
- Specific activity on ABTS [19]: 910 nkat/mg
- Grass L* [20]: 80.16
- Grass a* [20]: −0.73
- Grass b* [20]: 16.20
